US6864068B2, “Antifungal proteins” (Syngenta Limited, priority 1995, dated 2005)
Square brackets hold non-standard residues; d marks the D form. Ends that are not written are not given here. pGlu = O=C1CC[C@@H](C(=O)O)N1

Legend:
various fungi = details: cited from earlier work
F culmorum [1] = test: Growth inhibition in SMF with varying CaCl2 or KCl (FIG. 7); type: cell-based
Protocol: Their antifungal activity was determined in SMF with increasing Ca^2+ or K^+ concentration and compared with that of plant-derivable wild type Rs-AFP2 (isolated from seed) as well as yeast purified Rs-AFP2. FIG. 7 is a graph of the percentage growth inhibition of F culmorum caused by 10 μg/ml of yeast-purified Rs-AFP2 (SEQ ID NO: 20) (open circles), seed-purified Rs-AFP2 (SEQ ID NO: 77) (closed circles), Rs-AFP2/G9R (SEQ ID NO: 38) (squares) and Rs-AFP2/V39R (SEQ ID NO: 43) (triangles) in a medium consisting of SMF with varying concentrations of CaCl2 (panel A) and KCl (panel B).

Nectria haematococca = test: Antifungal activity in three media differing in ionic strength (Table 3); type: cell-based; details: 72 hours
Protocol: (§1) The antifungal activity of the G9R and V39R Rs-AFP2 isoforms was also assessed on a set of seven different phytopathogenic fungi in three media differing in ionic strength: SMF−, SMF plus 1 mM CaCl2 and 50 mM KCl, and SMF plus 5 mM CaCl2 and 50 mM KCl. The fungi tested were: Alternaria brassicicola, Ascochyta pisi, Botrytis cinerea, Fusarium culmorum, Nectria haematococca, Phoma betae and Verticillium dahliae.

Phoma betae = test: as above; type: cell-based
Protocol: as §1

Fusarium culmorum [2] = test: as above; type: cell-based; details: 96 hours
Protocol: as §1

Ascochyta pisi = test: as above; type: cell-based; details: 72 hours
Protocol: as §1

Alternaria brassicicola = test: as above; type: cell-based; details: 72 hours
Protocol: as §1

Botrytis cinerea = test: as above; type: cell-based; details: 72 hours
Protocol: as §1

Verticillium dahliae = test: as above; type: cell-based; details: 96 hours
Protocol: as §1

Fusarium culmorum [3] = test: Liquid growth inhibition assay in half strength potato dextrose broth; type: cell-based; details: F culmorum; for IC50 (concentration required for 50% growth inhibition): from dose-response curves of serial dilutions; for type of inhibition (hyphal morphology): induction of multiple branches near the tips
Protocol: Yeast cells transformed with either pTG3828, pMFprepro/Rs AFP2 or PMFpre/RsAFP2 were grown in selective SD medium until a saturated culture was obtained. To assess the antifungal activity of proteins secreted by the yeast cells, the supernatant of the yeast cultures was filtered (sterile 0.22 μm filter) and serially diluted in sterile water. Diluted samples (20 μl) were incubated in microtiter plate wells with 80 μl of half strength potato dextrose broth (Difco) containing spores 10^4 spores/ml) of Fusarium culmorum.
Growth of the fungi was monitored by microspectrophotometry as described by Broekaert et al (1990, FEMS Microbiol Lett, 69:55-60). Homogenates of yeast cells were prepared by spinning down 1 ml of a saturated yeast culture, suspending the cells in 200 μl of water, vortexing the cells in the presence of 0.2 g of glass beads (425-600 μm), and clearing the homogenate by centrifugation (1 min, 10000×g). Antifungal activity could only be detected in the culture medium of yeast cells transformed with pMFprepro/RsAFP2, which contained about 2 μg/ml of Rs-AFP2 equivalents. The activity of the homogenate of these cells, as well as that of culture media and cell homogenates of yeast cells transformed with pMFpre/RsAFP2 or pTG3828 transformed yeasts was below the detection limit (about 0.2 μg/ml of Rs-AFP2 equivalents).
The supernatant of 100 ml of a saturated culture of yeast transformed with pMFprepro/RsAFP2 (grown on minimal selective SD medium supplemented with 0.5% w/v of casamino acids) was centrifuged (4000 rpm, 10 min), and filtered (0.45 μm) to remove yeast cells and debris. Tris-HC1 (pH9) was added to the supernatant to a final concentration of 50 mM. The sample was loaded at a flow rate of 2 ml/min on an anion exchange chromatography column (Q-Sepharose Fast Flow, 20 ml bed volume, Pharmacia), on-line connected with a disposable reversed-phase C8 silica column (Bond Elut, 500 mg solid phase, Varian, Harbor City, USA). The antifungal activity was not retained on the Q-Sepharose matrix but bound to the C8 silica matrix. […] The latter eluate was dried in a rotating vacuum concentrator, redissolved in 0.5 ml 15% (v/v) acetonitrile containing 0.1% (v/v) TFA, and was loaded on a reversed-phase C2/C18 silica column (Pep-S, 5 μm beads, 0.4×25 cm, Pharmacia connected to a Waters 600 HPLC station pre-equilibriated with 15% acetonitrile containing 0.1% (v/v) TFA. After loading, the column was rinsed with the same buffer until the absorbance reached background level. The column was subsequently eluted with a 15 minute linear gradient from 15% to 50% acetonitrile containing 0.1% TFA at a flow rate of 1 ml/min. The eluate was monitored for proteins by on-line measurement of the absorbance at 280 nm. […] Twenty μl fractions were tested in a liquid growth inhibition assay: 20 μl samples were incubated in microtiter plate wells with 80 μl of half strength potato dextrose broth (Difco) containing 10^4 spores/ml of F culmorum; growth of the fungi was monitored by microspectrophotometry as described by Broekaert et al (1990, FEMS Microbiol Lett, 69: 55-60).
The specific antifungal activity of RPC-purified peak A material, as well as that of plant-derivable Rs-AFP2, was determined by measuring the percentage growth inhibition of F culmorum caused by serial dilutions of the protein samples. […]

F culmorum [4] = test: Specific antifungal activity of Rs-AFP2 isoforms in SMF− and SMF+ media; type: cell-based; set-up: IC50 SMF− / IC50 SMF+: unit not given here
Protocol: For each isoform, two independent purifications were carried out and the antifungal activity was determined in duplicate using F culmorum as a test fungus in two different media: a low ionic strength medium called SMF-(Terras et al, 1992, J Biol Chem, 267:15301-15309) and the same medium supplemented with 1 mM CaCl2 and 50 mM KCl called SMF+. The presence of salts in the test medium, especially salts with divalent cations, reduces the specific activity of Rs-AFP2. Seed-purified as well as yeast-expressed wild type Rs-AFP2 served as a control in the assays.
The relative specific activity is expressed as the specific activity of the mutant divided by the specific activity of yRs-AFP2 and multiplied by 100. […] The specific activity was measured in medium SMF−and SMF+.
Deviations are given as standard error of the mean (sem) based on the triplicate experiments. In SMF−, the medium without added salts, most of the derivatives show no decrease or only a minor decrease in antifungal activity, while in SMF+, the medium with added salts, there is a significant decrease in antifungal activity for several Rs-AFP2 isoforms.

## Rs-AFP2: plant-derivable wild-type antifungal protein 2 from Raphanus sativus (radish) seeds ([pGlu]KLCQRPSGTWSGVCGNNNACKNQCIRLEKARHGSCNYVFPAHKCICYFPC; cysteine pairing not given here; listed as Raphanus sativus) [reference compound]
Various fungi
  activity relative to Rs-AFP1 on various fungi: two- to thirty-fold more active
  salt-tolerance relative to Rs-AFP1: increased salt-tolerence
F culmorum [1]; SMF with 100 mM KCl, FIG. 7, 10 μg/ml
  activity in the presence of 100 mM KCl: drastically reduced
F culmorum [1]; protein 10 μg/ml
  CaCl2 concentration at which fully active: ≤ 1.25 mM
F culmorum [1]; protein 10 μg/ml, SMF with 5mM CaCl2
  growth inhibition in the presence of 5mM CaCl2: basically inactive
Nectria haematococca
  IC50 VALUES, N haematococca, SMF + 1 mM CaCl2/50 mM KCl: 48.0 µg/mL
  IC50 VALUES, N haematococca, SMF + 5 mM CaCl2/50 mM KCl: >100 µg/mL
Nectria haematococca; SMF−
  IC50 VALUES, N haematococca, SMF: 2.0 µg/mL
Phoma betae; 72 hours
  IC50 VALUES, P betae, SMF + 1 mM CaCl2/50 mM KCl: 14.0 µg/mL
  IC50 VALUES, P betae, SMF + 5 mM CaCl2/50 mM KCl: 27.0 µg/mL
Phoma betae; SMF−, 72 hours
  IC50 VALUES, P betae, SMF: 0.9 µg/mL
Phoma betae; Table 3 data
  activity against P betae compared with the G9R and V39R isoforms, in words: appeared to be more active
Fusarium culmorum [2]
  IC50 VALUES, F culmorum, SMF + 1 mM CaCl2/50 mM KCl: 4.6 µg/mL
  IC50 VALUES, F culmorum, SMF + 5 mM CaCl2/50 mM KCl: 22.0 µg/mL
Fusarium culmorum [2]; SMF−
  IC50 VALUES, F culmorum, SMF: 2.1 µg/mL
Ascochyta pisi
  IC50 VALUES, A pisi, SMF + 1 mM CaCl2/50 mM KCl: >50 µg/mL
  IC50 VALUES, A pisi, SMF + 5 mM CaCl2/50 mM KCl: >100 µg/mL
Ascochyta pisi; SMF−
  IC50 VALUES, A pisi, SMF: 1.9 µg/mL
Alternaria brassicicola
  IC50 VALUES, A brassicicola, SMF + 1 mM CaCl2/50 mM KCl: >50 µg/mL
  IC50 VALUES, A brassicicola, SMF + 5 mM CaCl2/50 mM KCl: >100 µg/mL
Alternaria brassicicola; SMF−
  IC50 VALUES, A brassicicola, SMF: 3.2 µg/mL
Botrytis cinerea
  IC50 VALUES, B cinerea, SMF + 1 mM CaCl2/50 mM KCl: >50 µg/mL
  IC50 VALUES, B cinerea, SMF + 5 mM CaCl2/50 mM KCl: >100 µg/mL
Botrytis cinerea; SMF−
  IC50 VALUES, B cinerea, SMF: 1.8 µg/mL
Verticillium dahliae
  IC50 VALUES, V dahliae, SMF + 1 mM CaCl2/50 mM KCl: 11.0 µg/mL
  IC50 VALUES, V dahliae, SMF + 5 mM CaCl2/50 mM KCl: 50.0 µg/mL
Verticillium dahliae; SMF−
  IC50 VALUES, V dahliae, SMF: 1.0 µg/mL
Fusarium culmorum [3]
  IC50 (concentration required for 50% growth inhibition): about 3 μg/ml
  type of inhibition (hyphal morphology): characteristic morphological distortion of the fungal hyphae

## yRs-AFP2: yeast-expressed wild-type Rs-AFP2 (QKLCQRPSGTWSGVCGNNNACKNQCIRLEKARHGSCNYVFPAHKCICYFPC; listed as Raphanus sativus) [reference compound]
F culmorum [4]; 1/IC50 of mutant divided by that of yRs-AFP2 x 100, 48 hour incubation, SMF with 1 mM CaCl2 and 50 mM KCl, preliminary tests
  RELATIVE SPECIFIC ACTIVITY (%) IN MEDIUM SMF+: 100%
F culmorum [4]; 1/IC50 of mutant divided by that of yRs-AFP2 x 100, 48 hour incubation, low ionic strength medium, preliminary tests
  RELATIVE SPECIFIC ACTIVITY (%) IN MEDIUM SMF−: 100%
F culmorum [4]; 72 hours growth, high salt medium (1 mM CaCl2, 50 mM KCl), triplicate
  IC50 SMF+: 8.5
F culmorum [4]; 72 hours growth, low salt medium, triplicate
  IC50 SMF−: 2.7
Fusarium culmorum [3]
  IC50 (concentration required for 50% growth inhibition): about 3 μg/ml
  type of inhibition (hyphal morphology): characteristic morphological distortion of the fungal hyphae
